What was measured:
Type in all cases: cell-based
BxPC-3 cells = assay: MTS cell proliferation assay, BxPC-3; conditions: Homo sapiens, 120 hrs incubation
Procedure: (§1) Cell lines and culture conditions: Human colon cancer cells Caco-2, HT29 and HCT15, human pancreatic cancer cells BxPC3, CFPAC-1, and CAPAN-2, liver cancer cells SNU423 and kidney cells HEK293, were obtained from American Type Culture Collection (Rockville, USA). HeLa, DLD1, U937, THP-1, and NIH3T3 cells were obtained from ATCC. Huh7 cells were obtained from (Japanese Cancer Resources Bank). HeLa cells, Huh7, DLD1 and NIH-3T3 cells were cultured in DMEM (Dulbecco's modification of Eagle's Medium; Corning) supplemented with 10% Fetal Bovine Serum (FBS; Invitrogen) and 10% Fetal Calf Serum (FCS; Atlanta Biologicals) respectively. […]
(§2) MTS cell proliferation assay: Cells were detached from the plates using trypsin (0.25% for 3 mins, ATCC) and counted using a hemocytometer and were plated at 3000-1500 cells per well, in a 96-well format. […] After a 72-hour (or 120 hrs for BxPC3, CAPAN-2, SNU423) incubation with compound or vehicle, cell growth was assessed via the Promega CellTiter 96® AQueous One Solution Cell Proliferation Assay, a colorimetric method to determine the number of viable cells. 20 μL of the CellTiter 96® AQueous One Solution Reagent was added directly into cultured wells and incubated for approximately one hour, after which the absorbance at 490 nm was read with a 96-well plate reader (Opys MR Microplate Reader). […]

THP-1 cells = assay: MTS cell proliferation assay, THP-1; conditions: Homo sapiens, 72-hour incubation
Procedure: as §1, §2

CaCo-2 cells = assay: MTS cell proliferation assay, CaCo-2; conditions: Homo sapiens, 72-hour incubation
Procedure: as §1, §2

HuH7 cells = assay: MTS cell proliferation assay, HuH7; conditions: Homo sapiens, Huh-7, 72-hour incubation
Procedure: (§3) Cell lines and culture conditions: Human colon cancer cells Caco-2, HT29 and HCT15, human pancreatic cancer cells BxPC3, CFPAC-1, and CAPAN-2, liver cancer cells SNU423 and kidney cells HEK293, were obtained from American Type Culture Collection (Rockville, USA). HeLa, DLD1, U937, THP-1, and NIH3T3 cells were obtained from ATCC. Huh7 cells were obtained from (Japanese Cancer Resources Bank). HeLa cells, Huh7, DLD1 and NIH-3T3 cells were cultured in DMEM (Dulbecco's modification of Eagle's Medium; Corning) supplemented with 10% Fetal Bovine Serum (FBS; Invitrogen) and 10% Fetal Calf Serum (FCS; Atlanta Biologicals) respectively. U937, BxPC3, HCT15, SNU423 and THP-1 cells were grown in RPMI-1640 (Roswell Park Memorial Institute; Corning) supplemented with 10% Fetal Bovine Serum (FBS; Invitrogen). CFPAC-1 cells were cultured in Iscove's Modified Dulbecco's Medium (ATCC) supplemented with 10% FBS. CAPAN-2 and HT29 cells were cultured in McCoy's 5a medium supplemented with 10% FBS. Caco2 and HEK293 cells were grown in Eagle's Minimum Essential Medium (ATCC) with final 20% FBS concentration. All cells were maintained at 37° C. in 5% CO2 at constant 70% humidity.
(§4) MTS cell proliferation assay: Cells were detached from the plates using trypsin (0.25% for 3 mins, ATCC) and counted using a hemocytometer and were plated at 3000-1500 cells per well, in a 96-well format. The cells were seeded in the inner wells of 96 well plates, and media was added to the outer wells (blank). For NIH-3T3, 1500 cells were seeded in the inner wells of 96-well plates, and after 20 hours cells were treated with compound or DMSO (vehicle control) at appropriate concentrations (DMSO at final concentration of 1%). For other adherent cells 3000 HeLa, BxPC3, CFPAC-1, CAPAN-2, HEK293, HCT15, HT29, CaCo2, DLD1, Huh7 or SNU423 cells were seeded in in each well approximately 20 hrs prior to the treatment. For U937 and THP-1 suspension cells, 2500 cells were added to the wells of a 96-well plate on the day of treatment. After a 72-hour (or 120 hrs for BxPC3, CAPAN-2, SNU423) incubation with compound or vehicle, cell growth was assessed via the Promega CellTiter 96® AQueous One Solution Cell Proliferation Assay, a colorimetric method to determine the number of viable cells. 20 μL of the CellTiter 96® AQueous One Solution Reagent was added directly into cultured wells and incubated for approximately one hour, after which the absorbance at 490 nm was read with a 96-well plate reader (Opys MR Microplate Reader). GI50 values were determined from plots of the percentage of compound-treated cell growth to vehicle cell growth vs. compound concentration (GraphPad Prism; non-linear regression, log inhibitor verse normalized response with variable slope).

HT-29 cells = assay: MTS cell proliferation assay, HT-29; conditions: Homo sapiens, 72-hour incubation
Procedure: as §1, §2

SNU-423 cells = assay: MTS cell proliferation assay, SNU-423; conditions: Homo sapiens, 120 hrs incubation
Procedure: as §3, §4

HeLa cells = assay: MTS cell proliferation assay, HeLa; conditions: Homo sapiens, 72-hour incubation
Procedure: as §3, with “All cells were maintained at 37° C. in 5% CO2 at constant 70% humidity.” left out
(§5) MTS cell proliferation assay: Cells were detached from the plates using trypsin (0.25% for 3 mins, ATCC) and counted using a hemocytometer and were plated at 3000-1500 cells per well, in a 96-well format. […] After a 72-hour (or 120 hrs for BxPC3, CAPAN-2, SNU423) incubation with compound or vehicle, cell growth was assessed via the Promega CellTiter 96® AQueous One Solution Cell Proliferation Assay, a colorimetric method to determine the number of viable cells. 20 μL of the CellTiter 96® AQueous One Solution Reagent was added directly into cultured wells and incubated for approximately one hour, after which the absorbance at 490 nm was read with a 96-well plate reader (Opys MR Microplate Reader). GI50 values were determined from plots of the percentage of compound-treated cell growth to vehicle cell growth vs. compound concentration (GraphPad Prism; non-linear regression, log inhibitor verse normalized response with variable slope).

NIH 3T3 cells = assay: MTS cell proliferation assay, NIH 3T3; conditions: Mus musculus, NIH3T3, 72-hour incubation
Procedure: as §3, with “All cells were maintained at 37° C. in 5% CO2 at constant 70% humidity.” left out
as §5

HCT-15 cells = assay: MTS cell proliferation assay, HCT-15; conditions: Homo sapiens, 72-hour incubation
Procedure: as §1, §2

CFPAC-1 cells = assay: MTS cell proliferation assay, CFPAC-1; conditions: Homo sapiens, 72-hour incubation
Procedure: as §1, §2

U937 cells = assay: MTS cell proliferation assay, U937; conditions: Homo sapiens, U-937, 72-hour incubation
Procedure: as §1, §2

HEK-293 cells = assay: MTS cell proliferation assay, HEK-293; conditions: Homo sapiens, HEK293, 72-hour incubation
Procedure: as §1, §2

CAPAN-2 cells = assay: MTS cell proliferation assay, CAPAN-2; conditions: Homo sapiens, 120 hrs incubation
Procedure: as §1, §2

RPE-hTERT Flp-In cells = assay: FQI34/FQI1 comparison, mitotic defects in RPE-hTERT Flp-In cells
Procedure: RPE-hTERT Flp-In cells were incubated in serum-free DMEM:F12 media for 24 hours to synchronize the cells in G0/G1. Cells were stimulated to reenter the cell cycle with DMEM:F12 media containing 10% Fetal Bovine Serum. After 24 hours, the cells were treated with DMSO (vehicle), FQI1 (2.5 μM or 5 μM), or FQI34 (250 nM or 500 nM) for one hour. The cells were washed twice with 1×Phosphate-buffered Saline and fixed with PHEM (3.7% formaldehyde in 100 mM PIPES at pH 6.8, 10 mM EGTA, 1 mM magnesium chloride, and 0.2% Triton X-100) for 10 minutes at room temperature. The fixed cells were stained for α-tubulin using a mouse anti-α-tubulin antibody (Fisher #62204). Secondary antibodies were: DMSO/FQI1 samples—goat anti-mouse IgG conjugated to Alexa 546 (Thermo Fisher #A11003); FQI34 samples—goat anti-mouse IgG conjugated to Texas Red (Fisher #T-862). DNA was stained with Hoechst 33342. Cells were imaged using a Nikon NiE using the 40× objective and images were captured using a DS-Qi1 Mc 12 bit camera. Scale bars and merged images were generated using Fiji software.

**Q.** `CCOc1cc(N(C)C)ccc1C1CC(=O)Nc2cc3c(cc21)OCO3` (stereo not drawn) [FQI-34] was tested. Which GI50 (BxPC-3 cells) did it give?
**A.** 270 nM

**Q.** And the GI50 (THP-1 cells)?
**A.** 4800 nM

**Q.** And the GI50 (CaCo-2 cells)?
**A.** 501 nM

**Q.** And the GI50 (HuH7 cells)?
**A.** 141 nM

**Q.** And the GI50 (HT-29 cells)?
**A.** 316 nM

**Q.** And the GI50 (SNU-423 cells)?
**A.** 384 nM

**Q.** What about the GI50 (HeLa cells) of the same molecule?
**A.** 462 nM

**Q.** And the GI50 (NIH 3T3 cells)?
**A.** 730 nM

**Q.** And the GI50 (HCT-15 cells)?
**A.** 224 nM

**Q.** What about the GI50 (CFPAC-1 cells) of the same molecule?
**A.** 676 nM

**Q.** What about the GI50 (U937 cells) of the same molecule?
**A.** 250 nM

**Q.** What about the GI50 (HEK-293 cells) of the same molecule?
**A.** 219 nM

**Q.** And the GI50 (CAPAN-2 cells)?
**A.** 239 nM

**Q.** What about the “potency for causing mitotic defects relative to FQI1” value (RPE-hTERT Flp-In cells; FQI34 250 nM or 500 nM vs FQI1 2.5 μM or 5 μM, one hour) of the same molecule?
**A.** at least 10 fold

**Q.** What about the “chromosome and spindle phenotype (DNA and α-tubulin immunofluorescence)” value (RPE-hTERT Flp-In cells; one hour treatment, FIG. 33) of the same molecule?
**A.** condensed, but nonaligned chromosomes and disrupted spindles

— patent US11420977B2, “Late SV40 (LSF) inhibitors” (Trustees of Boston University, priority 2018, dated 2022)
